Laboratory results published in ChEMBL document CHEMBL3286201, “Antileishmanial activity of a series of N²,N⁴-disubstituted quinazoline-2,4-diamines” (J Med Chem, 2014).

How the values were obtained:
[1] = test system: Leishmania donovani; test: Antileishmanial activity against intracellular amastigote stage of Leishmania donovani MHOM/ET/67/L82 infected in mouse J774A1 cells by colorimetric assay; format: functional, organism-based; settings: MHOM/ET/67/L82, J774.A1
[2] = test system: Leishmania amazonensis; test: Antileishmanial activity against intracellular amastigote stage of Leishmania amazonensis LV78 infected in mouse J774A1 cells by colorimetric assay; format: functional, organism-based; settings: LV78, J774.A1
[3] = Cytotoxicity against mouse J774A1 cells after 72 hrs by MTT assay; format: cell-based; settings: J774.A1, 72 h
[4] = Selectivity index, ratio of EC50 for mouse J774A1 cells to EC50 for intracellular amastigote stage of Leishmania donovani MHOM/ET/67/L82; format: toxicity, cell-based, J774.A1; settings: read-out: Ratio EC50
[5] = Aqueous solubility of the compound at pH 7.4; format: physicochemical; settings: buffer
[6] = Aqueous solubility of the compound at pH 2; format: physicochemical; settings: buffer
[7] = Distribution coefficient, log D of the compound at pH 7.4; format: physicochemical; settings: octanol/water
[8] = Distribution coefficient, log D of the compound at pH 3; format: physicochemical; settings: octanol/water
[9] = pampa, pH 7.4
[10] = pampa, pH 4

c1ccc(CNc2nc(NCc3ccccc3)c3ccccc3n2)cc1
EC50 [1]: 0.67 µM
EC50 [2]: 1.4 µM
EC50 [3]: 5.5 µM
selectivity ratio [4]: 8.2
solubility [5]: ≤ 5 µM
solubility [6]: ≤ 20 µM

CNc1nc(NCc2ccccc2)c2ccccc2n1
EC50 [1]: 1.5 µM
EC50 [2]: 13 µM
EC50 [3]: 18 µM
selectivity ratio [4]: 12
solubility [5]: ≥ 30 µM
solubility [6]: ≥ 30 µM
logD [7]: 3.14
logD [8]: 2.11

CCCCNc1nc(NCCCC)c2ccccc2n1
EC50 [1]: 1.8 µM
EC50 [2]: 2.1 µM
EC50 [3]: 5.4 µM
selectivity ratio [4]: 3
solubility [5]: ≤ 10 µM
solubility [6]: ≥ 30 µM
logD [7]: 3.89
logD [8]: 2.91
permeability [9]: 8800 nm/s
permeability [10]: 4850 nm/s

CSCCNc1nc(NC(C)C)nc2ccccc12
EC50 [1]: 4.3 µM
EC50 [2]: 5.1 µM
EC50 [3]: 20 µM
selectivity ratio [4]: 4.7
solubility [5]: ≤ 20 µM
solubility [6]: ≥ 30 µM
logD [7]: 3.02
logD [8]: 2.06
permeability [9]: 14800 nm/s
permeability [10]: 288 nm/s

CC(C)Nc1nc(NCc2ccco2)c2ccccc2n1
EC50 [1]: 2.5 µM
EC50 [2]: 3.7 µM
EC50 [3]: 17 µM
selectivity ratio [4]: 6.8
solubility [5]: ≥ 30 µM
solubility [6]: ≥ 30 µM
logD [7]: 3.15
logD [8]: 2.18
permeability [9]: 8830 nm/s
permeability [10]: 622 nm/s

FC(F)(F)CNc1nc(NCc2ccco2)c2ccccc2n1
EC50 [1]: 3.6 µM
EC50 [2]: 5.8 µM
EC50 [3]: 23 µM
selectivity ratio [4]: 6.4
solubility [5]: ≤ 10 µM
solubility [6]: ≥ 30 µM
logD [7]: 4.2
logD [8]: 2.02
permeability [9]: 9790 nm/s
permeability [10]: 677 nm/s

OCCNc1nc(NCc2ccco2)c2ccccc2n1
EC50 [1]: 25 µM
EC50 [2]: > 50 µM
EC50 [3]: > 33 µM
selectivity ratio [4]: > 1.3
solubility [5]: ≤ 20 µM
solubility [6]: ≥ 30 µM
logD [7]: 2.19
logD [8]: 1.48
permeability [9]: 11300 nm/s
permeability [10]: 264 nm/s

CC(C)Nc1nc(N(C)C)c2ccccc2n1
EC50 [1]: 8.9 µM
EC50 [2]: 19 µM
EC50 [3]: > 33 µM
selectivity ratio [4]: > 3.7
solubility [5]: ≤ 10 µM
solubility [6]: ≥ 30 µM
logD [7]: 3.13
logD [8]: 1.64
permeability [9]: 11200 nm/s
permeability [10]: 723 nm/s

CC(C)Nc1nc(NCC(F)(F)F)c2ccccc2n1
EC50 [1]: 3.7 µM
EC50 [2]: 7.6 µM
EC50 [3]: > 33 µM
selectivity ratio [4]: > 8.9
solubility [5]: ≥ 30 µM
solubility [6]: ≥ 30 µM
logD [7]: 3.19
logD [8]: 2.4
permeability [9]: 7800 nm/s
permeability [10]: 197 nm/s

CC(C)Nc1nc(NC2CCCCC2)c2ccccc2n1
EC50 [1]: > 50 µM
EC50 [2]: > 50 µM
solubility [5]: ≤ 20 µM

CCOC(=O)CNc1nc(NC(C)C)nc2ccccc12
EC50 [1]: 6.9 µM
EC50 [2]: 20 µM
EC50 [3]: > 33 µM
selectivity ratio [4]: > 4.8
solubility [5]: ≤ 20 µM
solubility [6]: ≥ 30 µM
logD [7]: 2.54
logD [8]: 1.73
permeability [9]: 7440 nm/s
permeability [10]: 388 nm/s

CC(C)Nc1nc(NCc2ccco2)c2cccc(Cl)c2n1
EC50 [1]: 4.4 µM
EC50 [2]: 18 µM
EC50 [3]: > 33 µM
selectivity ratio [4]: > 7.5
solubility [5]: ≤ 5 µM
solubility [6]: ≥ 30 µM
logD [7]: 3.96
logD [8]: 2.38
permeability [9]: 13300 nm/s
permeability [10]: 676 nm/s

CC(C)Nc1nc(NCc2ccco2)c2ccc(Cl)cc2n1
EC50 [1]: 9 µM
EC50 [2]: 23 µM
EC50 [3]: > 100 µM
selectivity ratio [4]: > 11
solubility [5]: ≤ 20 µM
solubility [6]: ≥ 30 µM
logD [7]: 3.91
logD [8]: 2.51
permeability [9]: 13800 nm/s
permeability [10]: 1030 nm/s

CC(C)Nc1nc(NCc2ccco2)c2cc(Cl)ccc2n1
EC50 [1]: 2.6 µM
EC50 [2]: 25 µM
EC50 [3]: > 33 µM
selectivity ratio [4]: > 13
solubility [5]: ≤ 20 µM
solubility [6]: ≥ 30 µM
logD [7]: 3.99
logD [8]: 2.6
permeability [9]: 16300 nm/s
permeability [10]: 1700 nm/s

CC(C)Nc1nc(NCc2ccco2)c2c(Cl)cccc2n1
EC50 [1]: 2.3 µM
EC50 [2]: 12 µM
EC50 [3]: 25 µM
selectivity ratio [4]: 11
solubility [5]: ≤ 10 µM
solubility [6]: ≥ 30 µM
logD [7]: 4.44
logD [8]: 2.62
permeability [9]: 12400 nm/s
permeability [10]: 1690 nm/s

Cc1cccc2c(NCc3ccco3)nc(NC(C)C)nc12
EC50 [1]: 4.2 µM
EC50 [2]: 4.4 µM
EC50 [3]: > 33 µM
selectivity ratio [4]: > 7.9
solubility [5]: ≤ 20 µM
solubility [6]: ≥ 30 µM
logD [7]: 3.55
logD [8]: 1.57
permeability [9]: 6660 nm/s
permeability [10]: 459 nm/s

Cc1ccc2nc(NC(C)C)nc(NCc3ccco3)c2c1
EC50 [1]: 4.7 µM
EC50 [2]: 15 µM
EC50 [3]: > 33 µM
selectivity ratio [4]: > 7
solubility [5]: ≤ 20 µM
solubility [6]: ≥ 30 µM
logD [7]: 3.63
logD [8]: 1.55
permeability [9]: 7890 nm/s
permeability [10]: 672 nm/s

Cc1cccc2nc(NC(C)C)nc(NCc3ccco3)c12
EC50 [1]: 0.95 µM
EC50 [2]: 3.6 µM
EC50 [3]: 20 µM
selectivity ratio [4]: 21
solubility [5]: ≤ 10 µM
solubility [6]: ≥ 30 µM
logD [7]: 3.55
logD [8]: 2.44
permeability [9]: 8120 nm/s
permeability [10]: 459 nm/s

COc1cccc2c(NCc3ccco3)nc(NC(C)C)nc12
EC50 [1]: 3.2 µM
EC50 [2]: 7.3 µM
EC50 [3]: 30 µM
selectivity ratio [4]: 9.4
solubility [5]: ≤ 20 µM
solubility [6]: ≥ 30 µM
logD [7]: 3.4
logD [8]: 2.99
permeability [9]: 10600 nm/s
permeability [10]: 384 nm/s

COc1ccc2c(NCc3ccco3)nc(NC(C)C)nc2c1
EC50 [1]: 1.2 µM
EC50 [2]: 10 µM
EC50 [3]: 16 µM
selectivity ratio [4]: 13
solubility [5]: ≤ 20 µM
solubility [6]: ≥ 30 µM
logD [7]: 3.7
logD [8]: 3.11
permeability [9]: 13300 nm/s
permeability [10]: 592 nm/s

COc1ccc2nc(NC(C)C)nc(NCc3ccco3)c2c1
EC50 [1]: 0.74 µM
EC50 [2]: 9.6 µM
EC50 [3]: 14 µM
selectivity ratio [4]: 19
solubility [5]: ≥ 30 µM
solubility [6]: ≥ 30 µM
logD [7]: 3.58
logD [8]: 2.95
permeability [9]: 10100 nm/s
permeability [10]: 802 nm/s

CCCCNc1nc(NCc2ccccc2)c2ccccc2n1
EC50 [1]: 0.65 µM
EC50 [2]: 1.8 µM
EC50 [3]: 5.1 µM
selectivity ratio [4]: 7.8
solubility [5]: ≤ 10 µM

c1ccc(CNc2nc(Nc3ccccc3)c3ccccc3n2)cc1
EC50 [1]: 0.26 µM
EC50 [2]: 2.2 µM
EC50 [3]: 5.2 µM
selectivity ratio [4]: 20
solubility [5]: ≤ 5 µM
solubility [6]: ≥ 30 µM
logD [7]: 4.25
logD [8]: 2.67
permeability [9]: 6630 nm/s
permeability [10]: 4120 nm/s

c1ccc(CNc2nc(Nc3ccccc3)nc3ccccc23)cc1
EC50 [1]: 0.64 µM
EC50 [2]: 2.6 µM
EC50 [3]: 6.8 µM
selectivity ratio [4]: 11
solubility [5]: ≤ 5 µM
solubility [6]: ≤ 5 µM
logD [7]: 4.17
logD [8]: 2.78
permeability [9]: 14800 nm/s
permeability [10]: 2710 nm/s

COc1cc([C@@H]2c3cc4c(cc3[C@H](O)[C@H]3COC(=O)[C@H]23)OCO4)cc(OC)c1OC [PODOFILOX]
EC50 [3]: 0.25 µM
